According to patent US20220000853A1, “FORMULATIONS, METHODS, KIT, AND DOSAGE FORMS FOR IMPROVED STABILITY OF AN ACTIVE PHARMACEUTICAL INGREDIENT” (Asana BioSciences, LLC, priority 2018, published 2022):
Where a name gives a salt, the structure may show the parent alone.

Assays:
sodium channel = conditions: through capsaicin-activated TRPV1 channels; cited from earlier work
[1] = Stability tests of COMPOUND A formulations at 40° C./75% RH (discoloration, viscosity, physical state); type: physicochemical; conditions: poloxamer gel formulations, even at higher concentrations of the salt; expected
Source text: Table 5 below provides % w/w for COMPOUND A bromide salt polyethylene glycol ointment.

[2] = Observations in mice after single topical application (motor function, reflexes, weakness, grip strength, application site); type: in vivo
Method: 3% COMPOUND A in each of the three vehicle formulations prepared as described in Example 1 above—poloxamer (from Table 4 above); hydroxyethylcellulose (HEC) and polyethylene glycol (Ointment) (50 μl) was applied topically to the skin 6 hours prior to the intradermal injection of chloroquine (CQ) (4 mg/ml, 50 μl). […] Following intradermal CQ injection in the ipsilateral neck area, the number of scratches was counted and cumulative counts were recorded by an automated machine for 40 minutes.
Recovery: The condition of the site of injection was examined and observations of redness, swelling or abrasions due to scratching were made prior to and following scratch counting. Animals were euthanized upon completion of the final observations.
Different test articles comprising varying concentrations of COMPOUND A in hydroxyethyl cellulose (HEC) formulations of the specification (“Gel”) and in dimethylsulfoxide (DMSO) vehicle were tested on mice according to the pruritis model described in Example 2. The same strain of mice was used and the animals were housed in the same manner. Each treatment group consisted of 8 mice, and test articles Gel+COMPOUND A 0.3%, 1%, 3% and 5%, and DMSO+COMPOUND A 3% and 5%, were applied topically to the skin six hours prior to the intradermal injection of chloroquine (CQ) (4 mg/ml, 50 μl). […] Following intradermal CQ injection in the ipsilateral neck area, the number of scratches were counted and cumulative counts were recorded by the automated machine for 40 minutes. Following observation, animals were euthanized. In selected groups (Gel+3% COMPOUND A and Gel+5% COMPOUND A) plasma was harvested at 7 hours following the scratch counting. […] Harvested plasma samples were stored at −20° C. prior to analysis.
The carrier gel alone, with no drug, is referred to as “Gel.” Gel and Gel+COMPOUND A 1%,” “Gel+COMPOUND A 2%” and “Gel+COMPOUND A 3% were applied topically to the skin of groups of 8 mice, each of which were subjected to chloroquine injection (CQ; 4 mg/ml, 50μl) according to the pruritis model described in Example 2 at different time points (3 hours, 6 hours and 15 hours) post application of the test or control articles. The same strain of mice as in Example 2 was used, and the animals were housed in the same manner.

[3] = Single ascending dose first-in-human study: safety and tolerability; type: in vivo; conditions: healthy subjects
Method: The objective of this study was to evaluate the safety, tolerability, pharmacokinetics and effect on tactile stimulation of topical formulations of COMPOUND A in healthy subjects.
(§1) Four single ascending dose cohorts (six active and two placebo subjects per cohort) were evaluated after topical application of a COMPOUND A topical poloxamer gel at an application rate of 82, 164, 328 and 492 μg active moiety/cm^2 on the volar forearm over a 10 cm^2 area. Two concentrations of a COMPOUND A topical poloxamer gel: 1% (0.82% active moiety) and 3% (2.46% active moiety) were evaluated in this study. The 1% and 3% gels used were made as described in Example 1 above. Safety was evaluated via hematology, biochemistry and urinalysis clinical laboratory analyses, electrocardiograms and adverse event collection for 14 days following dose administration. The clinical laboratory analyses included hematocrit; Hgb; MCH; MCHC; MCV; MPV; PLT; RBC; WBC and differentials (neutrophils, lymphocytes, monocytes, eosinophils, and basophils relative and absolute); biochemistry albumin; alkaline phosphatase; ALT; AST; chloride; creatinine (enzymatic); GGT; glucose random; LDH; potassium; sodium; total bilirubin; urea (BUN); uric acid; urinalysis color, clarity, pH, specific gravity, bilirubin, glucose, ketones, leukocytes, nitrite, blood, protein, urobilinogen and microscopic analysis. Local skin tolerability was assessed using a 4-point ordinal scale, and serial plasma samples for PK analysis were collected for up to 7 days post-application. The 4-point ordinal scale used was as follows: 0 (None); 1 (Mild); 2 (Moderate); 3 (Severe) for each of the following: erythema, stinging, itching, burning, desquamation, edema, and pain. Semmes-Weinstein microfilaments were used to assess response to tactile stimulation on the treated area of the forearm; these microfilaments were the same as those commonly used to test patients for diabetic neuropathy.

[4] = Single ascending dose first-in-human study: plasma pharmacokinetics; type: in vivo; conditions: healthy subjects, topical poloxamer gel, most samples; quantifiable limit
Method: as §1, with “The 4-point ordinal scale used was as follows: 0 (None); 1 (Mild); 2 (Moderate); 3 (Severe) for each of the following: erythema, stinging, itching, burning, desquamation, edema, and pain. Semmes-Weinstein microfilaments were used to assess response to tactile stimulation on the treated area of the forearm; these microfilaments were the same as those commonly used to test patients for diabetic neuropathy.” left out

[5] = Single ascending dose first-in-human study: tactile stimulation with Semmes-Weinstein microfilaments; type: in vivo; conditions: healthy subjects, treated area of the forearm, normal skin
Method: as §1, with “The 4-point ordinal scale used was as follows: 0 (None); 1 (Mild); 2 (Moderate); 3 (Severe) for each of the following: erythema, stinging, itching, burning, desquamation, edema, and pain. Semmes-Weinstein microfilaments were used to assess response to tactile stimulation on the treated area of the forearm; these microfilaments were the same as those commonly used to test patients for diabetic neuropathy.” left out

[6] = Tachyphylaxis study: body weight, application site and distress observations; type: in vivo
Method: For all three phases, the mice were subjected to the pruritis model as described in Example 2. Upon completion of the scratching assessment mice were placed in their home cage and examined at 24 hours for any adverse skin reactions. Phase 3 animals were euthanized for blood collection following completion of the scratching counts. The condition of the site of injection was examined and observations of redness, swelling or abrasions due to scratching were made following scratch counting and at 24 hours post drug application Animals were euthanized upon completion of the final observations. One mouse died during anesthesia on day 5 after application of 3% drug and one mouse was euthanized because of weight loss. Blood plasma was collected on day 5 following the behavior in the Phase 3 animals. Plasma samples were stored on dry ice until analysis. Data was collected, tabulated and analyzed as described in Example 1, and the results of each phase are discussed below.
This study was performed in three phases, to examine the effect of the successive dosing of poloxamer gel formulations according to the present specification, COMPOUND A (1%) COMPOUND A (3%) and COMPOUND A (3% with gel removal 3 hours after application) on scratching behavior after 5 days of treatment. During Phase 1 of this study, four groups of mice (each n=4) received topical poloxamer gel, COMPOUND A (1%) and COMPOUND A (3%) drug. One group received topical application of COMPOUND A (3%), which was removed after 3 hours. To remove the formulation, a piece of gauze that had been saturated with distilled water was used to gently wipe (not rub) the application site from the rostral end to the caudal end 3 times. The skin was then patted dry with clean gauze. If there were lesions present on the skin, then extra care is taken to avoid irritation or redness.
This treatment was continued for 5 days without any CQ injections. On day 5 all these mice received intradermal CQ 3 hours after the last application of the drug (n=4).

[7] = following single topical application of the drug

## CC[N+](CC)(CC)CC(=O)Nc1c(C)cccc1C [QX-314]
Sodium channel
  Sodium channel activity: permeates through capsaicin-activated TRPV1 channels and blocks sodium channel activity

## Cc1ccccc1N(CC[C@H]1CCCC[N+]1(C)C)C1Cc2ccccc2C1 [COMPOUND A methanesulfonate salt, (R)-2-(2-((2,3-dihydro-1H-inden-2-yl)(o-tolyl)amino)ethyl)-1,1-dimethylpiperidin-1-ium]
[1]
  Discoloration: little to no discoloration

## Cc1ccccc1N(CC[C@H]1CCCC[N+]1(C)C)C1Cc2ccccc2C1 [COMPOUND A, (R)-2-(2-((2,3-dihydro-1H-inden-2-yl)(o-tolyl)amino)ethyl)-1,1-dimethylpiperidin-1-ium]
[2]; 3% in HEC gel, poloxamer gel or ointment
  Scratching at the site of application prior to injection of CQ: did not display scratching
[2]; following single topical application
  Weakness: No weakness was observed
[2]; [7]
  Motor function (measured by placing and stepping): normal
  Pinna and corneal reflexes: normal
[3]; topical poloxamer gel 1% and 3%
  Local tolerability of the gels (4-point ordinal scale): Excellent local tolerability
[3]; topical poloxamer gel 1% and 3%, single dose 82, 164, 328 and 492 μg active moiety/cm^2, volar forearm 10 cm^2
  Tolerability of all doses: well-tolerated
[3]; up to the highest administered dose (492 μg active moiety/cm^2)
  Dose-limiting toxicities or treatment-related adverse events: No dose-limiting toxicities or treatment-related adverse events were reported
[4]
  Plasma concentration: < 0.01 ng/mL
[5]
  Tactile stimulation assessments: No trends were noted
[6]; Phase 1, observed until day 9
  Recovery: they all recovered their weight and from their redness
[6]; Phase 1, poloxamer gel 1% and 3%, 5 days
  Body weight: slight drop in the weight
[6]; Phase 1, poloxamer gel, 5 days
  Lethargy or distress: No signs of lethargy or distress were observed
[6]; Phase 1, poloxamer gel, 5 days (scaly by day 3; redness Day 4 and 5, no gel removal)
  Skin at the site of application: scaly texture at the site of application
[6]; Phase 2, poloxamer gel 0.1% and 0.3%, 5 days
  Body weight: No weight loss was observed
